Data as given in PubChem BioAssay (NCI).
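1) Cells in 96-well plates. 2) Compound, 48 h, 5 concentrations. 3) Linear interpolation between surrounding doses. 4) Unreached endpoint = highest concentration. TGI marks complete inhibition of growth.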

Key:
Experiment in all cases: NCI anticancer screen, dose series, 48 h
SNB-19 CNS = tested on: SNB-19 CNS
SK-OV-3 ovarian = tested on: SK-OV-3 ovarian
UACC-257 melanoma = tested on: UACC-257 melanoma
SNB-75 CNS = tested on: SNB-75 CNS
OVCAR-8 ovarian = tested on: OVCAR-8 ovarian
SW-620 colon = tested on: SW-620 colon
SK-MEL-5 melanoma = tested on: SK-MEL-5 melanoma
SK-MEL-28 melanoma = tested on: SK-MEL-28 melanoma
OVCAR-3 ovarian = tested on: OVCAR-3 ovarian
CAKI-1 renal = tested on: CAKI-1 renal
SNB-78 CNS = tested on: SNB-78 CNS
A549 NSCLC = tested on: A549 NSCLC
A498 renal = tested on: A498 renal
SF-295 CNS = tested on: SF-295 CNS
OVCAR-4 ovarian = tested on: OVCAR-4 ovarian
LOX IMVI melanoma = tested on: LOX IMVI melanoma
NCI-H226 lung = tested on: NCI-H226 lung
HT29 colon = tested on: HT29 colon
HL-60(TB) leukemia = tested on: HL-60(TB) leukemia
HCT-15 colon = tested on: HCT-15 colon
786-0 renal = tested on: 786-0 renal
SF-539 CNS = tested on: SF-539 CNS
UO-31 renal = tested on: UO-31 renal
IGROV1 ovarian = tested on: IGROV1 ovarian
HOP-92 NSCLC = tested on: HOP-92 NSCLC
KM20L2 colon = tested on: KM20L2 colon
HCT-116 colon = tested on: HCT-116 colon
OVCAR-5 ovarian = tested on: OVCAR-5 ovarian
M19-MEL melanoma = tested on: M19-MEL melanoma
EKVX NSCLC = tested on: EKVX NSCLC
K-562 leukemia = tested on: K-562 leukemia
U251 CNS = tested on: U251 CNS
ACHN renal = tested on: ACHN renal
LXFL 529 NSCLC = tested on: LXFL 529 NSCLC
DMS 273 small cell lung = tested on: DMS 273 small cell lung
SN12C renal = tested on: SN12C renal
XF 498 CNS = tested on: XF 498 CNS
MALME-3M melanoma = tested on: MALME-3M melanoma
DLD-1 colon = tested on: DLD-1 colon
RXF 393 renal = tested on: RXF 393 renal
NCI-H460 lung = tested on: NCI-H460 lung
SK-MEL-2 melanoma = tested on: SK-MEL-2 melanoma
HOP-62 NSCLC = tested on: HOP-62 NSCLC
CCRF-CEM leukemia = tested on: CCRF-CEM leukemia
SF-268 CNS = tested on: SF-268 CNS
DMS 114 small cell lung = tested on: DMS 114 small cell lung
NCI-H522 lung = tested on: NCI-H522 lung
TK-10 renal = tested on: TK-10 renal
UACC-62 melanoma = tested on: UACC-62 melanoma
M14 melanoma = tested on: M14 melanoma
NCI-H23 lung = tested on: NCI-H23 lung
COLO 205 colon = tested on: COLO 205 colon
SR leukemia = tested on: SR leukemia
MDA-MB-231 breast = tested on: MDA-MB-231 breast
RPMI-8226 leukemia = tested on: RPMI-8226 leukemia
MDA-N = tested on: MDA-N
NCI/ADR-RES ovarian = tested on: NCI/ADR-RES ovarian
MDA-MB-435 = tested on: MDA-MB-435
HCC-2998 colon = tested on: HCC-2998 colon
KM12 colon = tested on: KM12 colon
HS 578T breast = tested on: HS 578T breast
DU-145 prostate = tested on: DU-145 prostate
MCF7 breast = tested on: MCF7 breast
PC-3 prostate = tested on: PC-3 prostate
BT-549 breast = tested on: BT-549 breast
T-47D breast = tested on: T-47D breast
MOLT-4 leukemia = tested on: MOLT-4 leukemia

Measured: TGI

Cc1ccc(N=NC2S/C(=C(\C#N)c3nc4ccccc4[nH]3)N(c3ccccc3)C2=O)cc1 (stereo not given)
82.5 µM: SNB-75 CNS
71.9 µM: 786-0 renal
81.1 µM: HOP-62 NSCLC
81.5 µM: RXF 393 renal
not listed: SR leukemia | MDA-MB-231 breast | RPMI-8226 leukemia | MDA-N | NCI/ADR-RES ovarian | MDA-MB-435 | HCC-2998 colon | KM12 colon | HS 578T breast | DU-145 prostate | MCF7 breast | PC-3 prostate | BT-549 breast | T-47D breast | MOLT-4 leukemia
> 100 µM: all other assays above

COC(=O)CC1C(COC(C)=O)OC(n2cc(C)c(=O)[nH]c2=O)C1OC(C)=O (stereo not given)
not listed: SNB-78 CNS | KM20L2 colon | M19-MEL melanoma | LXFL 529 NSCLC | DMS 273 small cell lung | XF 498 CNS | DLD-1 colon | DMS 114 small cell lung
> 100 µM: all other assays above

CC(=O)NNc1nc(C)c(C(/C=C/c2ccc([N+](=O)[O-])cc2)=N/N)s1
89.2 µM: RPMI-8226 leukemia
95.4 µM: MDA-MB-231 breast
not listed: SNB-78 CNS | KM20L2 colon | M19-MEL melanoma | LXFL 529 NSCLC | DMS 273 small cell lung | XF 498 CNS | DLD-1 colon | DMS 114 small cell lung
> 100 µM: all other assays above
